Test results as given in patent publication US8541449B2, “Substituted isoquinolines and isoquinolinones as Rho kinase inhibitors” (Sanofi, priority 2008, dated 2013).

Tests used:
Assay type in all cases: biochemical
[1] = target: T1, recombinant human PKG1-beta (Homo sapiens, UniProt Q13976); experiment: Determination of Protein Kinase G inhibition (Caliper peptide phosphorylation assay); conditions: recombinant human PKG1-beta versus ROCK II
T1 construct: Active recombinant human PKG1-beta (full-length, with N-terminal His-tag); His-tag (N); purchased Millipore GmbH, Schwalbach, Germany
T1 sequence (Q13976 1-686 isoform Q13976-2): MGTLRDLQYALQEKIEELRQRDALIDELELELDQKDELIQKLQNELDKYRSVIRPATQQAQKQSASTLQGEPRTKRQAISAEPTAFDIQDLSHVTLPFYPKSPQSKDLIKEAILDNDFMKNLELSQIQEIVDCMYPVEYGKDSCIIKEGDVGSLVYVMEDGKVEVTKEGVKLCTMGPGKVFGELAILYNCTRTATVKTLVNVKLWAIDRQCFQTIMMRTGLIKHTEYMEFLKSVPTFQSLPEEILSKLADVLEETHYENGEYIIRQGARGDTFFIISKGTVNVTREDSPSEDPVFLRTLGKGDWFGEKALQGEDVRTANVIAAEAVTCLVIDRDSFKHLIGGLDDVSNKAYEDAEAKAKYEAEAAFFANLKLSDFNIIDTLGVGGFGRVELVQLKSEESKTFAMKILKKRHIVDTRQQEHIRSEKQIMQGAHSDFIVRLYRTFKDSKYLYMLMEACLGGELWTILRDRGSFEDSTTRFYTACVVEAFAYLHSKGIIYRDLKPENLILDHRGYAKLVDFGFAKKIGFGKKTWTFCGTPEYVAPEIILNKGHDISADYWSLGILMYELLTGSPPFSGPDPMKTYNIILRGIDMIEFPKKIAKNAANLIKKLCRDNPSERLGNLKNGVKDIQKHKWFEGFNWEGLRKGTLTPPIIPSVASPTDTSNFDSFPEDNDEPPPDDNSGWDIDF
Outline: (§1)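 Full-length His-tagged PKG1-beta (150 ng/ml working) or His-tagged PKA residues 1-351 (30 ng/ml working) was mixed with compound in pH 7.4 Tris/MgCl2/DTT buffer. Fluorescein-peptide substrate and ATP (3 μM and 120 μM working) were then added for 60 min at 32 °C before an EDTA stop. Phosphopeptide was separated electrophoretically on a Caliper instrument to derive IC50.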

[2] = target: T2, recombinant human PKA (Homo sapiens, UniProt P17612); experiment: Determination of Protein Kinase A inhibition (Caliper peptide phosphorylation assay); conditions: recombinant human PKA versus ROCK II
T2 construct: Active recombinant human PKA (residues 1-351, N-terminal His-tag); His-tag (N); purchased Invitrogen, Karlsruhe, Germany
Outline: as §1

[3] = target: T3, human recombinant ROCK II (Homo sapiens, UniProt O75116); experiment: Determination of Rho kinase inhibition (Caliper peptide phosphorylation assay); conditions: 60 min at 32° C., negative decadal logarithm of the IC50
T3 construct: N-terminal His6-tagged recombinant human ROCK-II residues 11-552; His6 (N); purchased Millipore GmbH, Schwalbach, Germany
T3 sequence (O75116 11-552): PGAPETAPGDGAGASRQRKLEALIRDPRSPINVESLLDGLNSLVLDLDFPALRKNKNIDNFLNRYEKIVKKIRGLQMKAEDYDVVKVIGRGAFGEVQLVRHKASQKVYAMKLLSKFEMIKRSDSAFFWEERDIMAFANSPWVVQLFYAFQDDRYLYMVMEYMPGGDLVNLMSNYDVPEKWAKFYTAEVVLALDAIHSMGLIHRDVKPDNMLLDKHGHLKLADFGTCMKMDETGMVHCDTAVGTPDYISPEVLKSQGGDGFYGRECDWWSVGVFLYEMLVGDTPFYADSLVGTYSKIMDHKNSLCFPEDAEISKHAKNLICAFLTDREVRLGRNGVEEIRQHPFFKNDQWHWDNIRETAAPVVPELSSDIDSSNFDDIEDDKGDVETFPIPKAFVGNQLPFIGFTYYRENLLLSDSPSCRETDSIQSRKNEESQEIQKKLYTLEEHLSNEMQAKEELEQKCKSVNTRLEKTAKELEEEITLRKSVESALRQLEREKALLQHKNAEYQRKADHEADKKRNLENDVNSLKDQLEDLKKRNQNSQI
Outline: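 His6-tagged human ROCK II (residues 11-552) phosphorylated a fluorescein-labelled peptide for 60 min at 32° C in Tris-HCl pH 7.4 with MgCl2, DTT and BSA, using 3 μM peptide and 120 μM ATP as diluted stocks. EDTA-stopped; phosphopeptide separated and detected by Caliper mobility shift; IC50 determined.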

| Compound | Selectivity against PKG [1] | Selectivity against PKA [2] | pIC50 [3] |
| --- | --- | --- | --- |
| CC(N)[C@]1(c2ccc(F)cc2)CC[C@H](Oc2cc3cc[nH]c(=O)c3cc2Cl)CC1 (stereo partly drawn) [Example 15, cis-6-[4-(1-Amino-ethyl)-4-(4-fluoro-phenyl)-cyclo-hexyloxy]-7-chloro-2H-iso quinolin-1-one] | >300 | >1000 | +++++++ (8.0≦pIC50) |
| CCC(N)[C@]1(c2cccc(Br)c2)CC[C@@H](Oc2cc3cc[nH]c(=O)c3cc2Cl)CC1 (stereo partly drawn) [Example 16, trans-6-[4-(1-Amino-propyl)-4-(3-bromo-phenyl)-cyclohexyloxy]-7-chloro-2H-iso quinolin-1-one] | >100 | >300 | ++++++ (7.0≦pIC50<8.0) |
| CCC(N)[C@]1(c2cccc(OC)c2)CC[C@@H](Oc2cc3cc[nH]c(=O)c3cc2Cl)CC1 (stereo partly drawn) [Example 17, trans-6-[4-(1-Amino-propyl)-4-(3-methoxy-phenyl)-cyclohexyloxy]-7-chloro-2H-iso quinolin-1-one] | >100 | >300 | ++++++ (7.0≦pIC50<8.0) |
| CC(C)C(N)[C@]1(c2ccccc2)CC[C@@H](Oc2cc3cc[nH]c(=O)c3cc2Cl)CC1 (stereo partly drawn) [Example 19, trans-6-[4-(1-Amino-2-methyl-propyl)-4-phenyl-cyclohexyloxy]-7-chloro-2H-iso quinolin-1-one] | >100 | >100 | +++++ (6.0≦pIC50<7.0) |
| CC(C)CC(N)[C@]1(c2ccccc2)CC[C@@H](Oc2cc3cc[nH]c(=O)c3cc2Cl)CC1 (stereo partly drawn) [Example 20, trans-6-[4-(1-Amino-3-methyl-butyl)-4-phenyl-cyclohexyloxy]-7-chloro-2H-iso quinolin-1-one] | >100 | >100 | ++++++ (7.0≦pIC50<8.0) |
| CC(C)(N)[C@]1(c2ccc(F)cc2)CC[C@@H](Oc2cc3cc[nH]c(=O)c3cc2Cl)CC1 [Example 22, trans-6-[4-(1-Amino-1-methyl-ethyl)-4-(4-fluoro-phenyl)-cyclohexyloxy]-7-chloro-2H-iso quinolin-1-one] | >100 | >300 | ++++++ (7.0≦pIC50<8.0) |
| CC(N)[C@]1(c2ccccc2)CC[C@H](Oc2cc3cc[nH]c(=O)c3cc2Cl)CC1 (stereo partly drawn) [Example 24, cis-6-[4-(1-Amino-ethyl)-4-phenyl-cyclohexyloxy]-7-chloro-2H-iso quinolin-1-one] | >300 | >1000 | +++++++ (8.0≦pIC50) |
| CC(C)(N)[C@]1(c2ccccc2)CC[C@H](Oc2cc3cc[nH]c(=O)c3cc2Cl)CC1 [Example 25, cis-6-[4-(1-Amino-1-methyl-ethyl)-4-phenyl-cyclo-hexyloxy]-7-chloro-2H-iso quinolin-1-one] | >100 | >1000 | +++++++ (8.0≦pIC50) |
| NC(C1CC1)[C@]1(c2ccccc2)CC[C@H](Oc2cc3cc[nH]c(=O)c3cc2Cl)CC1 (stereo partly drawn) [Example 26] | >300 | >1000 | +++++++ (8.0≦pIC50) |
| CCC(N)[C@]1(c2ccc(C(C)C)cc2)CC[C@H](Oc2cc3cc[nH]c(=O)c3cc2Cl)CC1 (stereo partly drawn) [Example 27, cis-6-[4-(1-Amino-propyl)-4-(4-isopropyl-phenyl)-cyclohexyloxy]-7-chloro-2H-iso quinolin-1-one] | >10 | >100 | ++++++ (7.0≦pIC50<8.0) |
| CCC(N)[C@]1(c2cccc(OC)c2)CC[C@H](Oc2cc3cc[nH]c(=O)c3cc2Cl)CC1 (stereo partly drawn) [Example 28] | >1000 | >1000 | +++++++ (8.0≦pIC50) |
| CCC(N)[C@]1(c2ccc(F)cc2)CC[C@@H](Oc2cc3cc[nH]c(=O)c3cc2Cl)CC1 (stereo partly drawn) [Example 31, trans-6-[4-(1-amino-propyl)-4-(4-fluoro-phenyl)-cyclohexyloxy]-7-chloro-2H-iso quinolin-1-one] | >100 | >300 | ++++++ (7.0≦pIC50<8.0) |
| CCC(N)[C@]1(c2ccccc2)CC[C@@H](Oc2cc3cc[nH]c(=O)c3cc2Cl)CC1 (stereo partly drawn) [Example 32] | >300 | >1000 | ++++++ (7.0≦pIC50<8.0) |
| CCC(N)[C@]1(c2ccccn2)CC[C@H](Oc2cc3cc[nH]c(=O)c3cc2Cl)CC1 (stereo partly drawn) [Example 55, cis-6-[4-(1-Amino-propyl)-4-pyridin-2-yl-cyclohexyloxy]-7-chloro-2H-isoquinolin-1-one] | >300 | >1000 | +++++++ (8.0≦pIC50) |
| CCC(N)[C@]1(c2ccc(F)cc2F)CC[C@H](Oc2cc3cc[nH]c(=O)c3cc2Cl)CC1 (stereo partly drawn) [Example 56, cis-6-[4-(1-Amino-propyl)-4-(2,4-difluoro-phenyl)-cyclohexyloxy]-7-chloro-2H-isoquinolin-1-one] | >300 | >1000 | +++++++ (8.0≦pIC50) |
| CCC(N)[C@]1(c2ccc(F)cc2C)CC[C@H](Oc2cc3cc[nH]c(=O)c3cc2Cl)CC1 (stereo partly drawn) [Example 57, cis-6-[4-(1-Amino-propyl)-4-(4-fluoro-2-methyl-phenyl)cyclohexyloxy]-7-chloro-2H-isoquinolin-1-one] | >300 | >1000 | +++++++ (8.0≦pIC50) |
| CCC(N)[C@]1(c2cc(F)cc(F)c2)CC[C@H](Oc2cc3cc[nH]c(=O)c3cc2Cl)CC1 (stereo partly drawn) [Example 58, cis-6-[4-(1-Amino-propyl)-4-(3,5-difluoro-phenyl)-cyclohexyloxy]-7-chloro-2H-isoquinolin-1-one] | >100 | >1000 | +++++++ (8.0≦pIC50) |
| CCC(N)[C@]1(c2ccc(F)c(F)c2)CC[C@H](Oc2cc3cc[nH]c(=O)c3cc2Cl)CC1 (stereo partly drawn) [Example 59, cis-6-[4-(1-Amino-propyl)-4-(3,4-difluoro-phenyl)-cyclohexyloxy]-7-chloro-2H-isoquinolin-1-one] | >300 | >1000 | +++++++ (8.0≦pIC50) |
| CCC(N)[C@]1(c2ccccc2C)CC[C@H](Oc2cc3cc[nH]c(=O)c3cc2Cl)CC1 (stereo partly drawn) [Example 60, cis-6-[4-(1-Amino-propyl)-4-o-tolyl-cyclohexyloxy]-7-chloro-2H-isoquinolin-1-one] | >100 | >1000 | +++++++ (8.0≦pIC50) |
| CCC(N)[C@]1(c2ccccc2OC(F)(F)F)CC[C@H](Oc2cc3cc[nH]c(=O)c3cc2Cl)CC1 (stereo partly drawn) [Example 61, cis-6-[4-(1-Amino-propyl)-4-(2-trifluoromethoxy-phenyl)-cyclohexyloxy]-7-chloro-2H-iso quinolin-1-one] | >1 | >10 | +++++ (6.0≦pIC50<7.0) |
| CCC(N)[C@]1(c2ccc(F)c(OC)c2)CC[C@H](Oc2cc3cc[nH]c(=O)c3cc2Cl)CC1 (stereo partly drawn) [Example 62, cis-6-[4-(1-Amino-propyl)-4-(4-fluoro-3-methoxy-phenyl)-cyclohexyloxy]-7-chloro-2H-iso quinolin-1-one] | >300 | >1000 | +++++++ (8.0≦pIC50) |
| CCOc1cccc([C@]2(C(N)CC)CC[C@@H](Oc3cc4cc[nH]c(=O)c4cc3Cl)CC2)c1 (stereo partly drawn) [Example 63, cis-6-[4-(1-Amino-propyl)-4-(3-ethoxy-phenyl)-cyclohexyloxy]-7-chloro-2H-isoquinolin-1-one] | >300 | >1000 | +++++++ (8.0≦pIC50) |
| CCC(N)[C@]1(c2cc(F)cc(F)c2)CC[C@H](Oc2cc3cc[nH]c(=O)c3cc2F)CC1 (stereo partly drawn) [Example 66] | >10 | >10 | +++++ (6.0≦pIC50<7.0) |
